For test [1], the target named is T1, human FASN (Homo sapiens, UniProt P49327).
T1 construct: purified from SKBR3 cells using procedures modified from those in Jayakumar et al; endogenous in cells; host or cells: SKBR3 cells (ATCC); endogenous FASN purified in house by ammonium sulfate precipitation and mono Q chromatography
The test is described as follows: FASN NADPH consumption assay. The test is classed as biochemical. The settings on record: IC50 class, FASN NADPH Consumption Assay (symbols without asterisk); human FASN purified from SKBR3 cells. As for the experimental part:
Human FASN protein (SEQ ID NO 1) was purified from SKBR3 cells using procedures modified from those in Jayakumar et al., PNAS (1995) 92:8695-8699. SKBR3 cells were obtained from ATCC and grown in DMEM high glucose medium supplemented with 10% FBS, 1 μg/mL bovine pancreas insulin, 100 U/mL penicillin and 100 μg/mL streptomycin. The confluent cells were trypsinized and washed three times with PBS buffer before frozen in liquid N2 and stored at −80° C. Frozen cells were thawed on ice and re-suspended in lysis buffer (25 mM Tris-HCl, pH 7.0, 15 mM NaCl, 1 mM EDTA, and 1 mM DTT) with protease inhibitors. The cells were lysed by sonication, and the cell debris was removed by centrifugation at 20,000 rpm for 30 min. To the supernatant, neutralized saturated ammonium sulfate solution was added to a final concentration of 35%. The solution was left on ice for 1 hr, and the precipitated proteins were harvested by centrifugation at 20,000 rpm for 30 min. The proteins were re-dissolved in lysis buffer without NaCl and loaded on a mono Q column. Bound proteins were eluted with a linear gradient of NaCl in lysis buffer. Each fraction was analyzed by SDS-PAGE and FASN NADPH consumption assay. The fractions containing FASN were pooled and concentrated to 2-3 mg/mL. Glycerol was added to 20%, and the protein was frozen in liquid N2 and stored at −80° C.
All chemicals were purchased from Sigma (St. Louis, Mo.). The procedures of NADPH consumption assay were similar to those described in Cox et al., PNAS (1983) 80:4233-4237. On a 96-well polypropylene microplate, dilution series (typical concentrations 60 nM-1.0 mM) of inhibitor compounds were prepared in DMSO, of which 4.0 μL each was transferred to a black polystyrene assay microplate and mixed with 36 μL FASN assay buffer (50 mM potassium phosphate, pH 7.0, 1.0 mM EDTA, 0.01% NP-40) plus 5.0 mM fresh DTT. FASN protein (40 μL 150 nM FASN) was added per well, and the microplate was incubated at 37° C. for 30 min. Enzyme activity measurement was initiated by addition of 20 μL 5× substrate mixture to final concentrations of 60 nM FASN, 2.4 nM-40 μM compound, 0.2 mM NADPH, 50 μM butyryl-CoA, 0.5 mM malonyl-CoA in 100 μL assay buffer plus 5.0 mM DTT and 4.0% DMSO. NADPH consumption was monitored kinetically by fluorescence (λEX=340 nm, λEm=460 nm) on an EnVision 2100 multilabel plate reader (Perkin Elmer, Waltham, Mass.). FASN enzyme activity (slope) in the presence of 4% DMSO was used as maximum control, whereas background (minimum control) was measured by omission of malonyl-CoA in the substrate mixture. Inhibition curves were fitted by a logistic function to yield IC50 values: […]

For test [2], the target named is T1, human FASN. The test is described as follows: FASN Scintillation Proximity Flashplate assay. The test is classed as biochemical. The settings on record: IC50 class, FASN Scintillation Proximity Flashplate Assay (symbols with asterisk); human FASN purified from SKBR3 cells. The method, then:
Human FASN protein (SEQ ID NO 1) was purified from SKBR3 cells using procedures modified from those in Jayakumar et al., PNAS (1995) 92:8695-8699. SKBR3 cells were obtained from ATCC and grown in DMEM high glucose medium supplemented with 10% FBS, 1 μg/mL bovine pancreas insulin, 100 U/mL penicillin and 100 μg/mL streptomycin. The confluent cells were trypsinized and washed three times with PBS buffer before frozen in liquid N2 and stored at −80° C. Frozen cells were thawed on ice and re-suspended in lysis buffer (25 mM Tris-HCl, pH 7.0, 15 mM NaCl, 1 mM EDTA, and 1 mM DTT) with protease inhibitors. The cells were lysed by sonication, and the cell debris was removed by centrifugation at 20,000 rpm for 30 min. […] Each fraction was analyzed by SDS-PAGE and FASN NADPH consumption assay. […]
Acetyl-coenzyme A, malonyl-coenzyme A, NADPH, bovine gamma globulin, and orlistat were purchased from Sigma (St. Louis, Mo.). […] The plates were read in a Wallac 1450 Microbeta Plus liquid scintillation counter (Perkin Elmer, Waltham, Mass.), and counts per minute (CPM) were collected over 2 min. Each inhibitor well CPM was compared to the maximum FASN enzyme activity (Max) CPM and the background (Min) CPM, as measured by omission of FASN enzyme in the background well. % Inhibition values were calculated, and curves were fitted by a four-parameter logistic function to yield IC50 values: […]
For orientation: SPA uses beads or plates that emit light when radiolabelled molecules are held near them.

T1 sequence (P49327 whole entry): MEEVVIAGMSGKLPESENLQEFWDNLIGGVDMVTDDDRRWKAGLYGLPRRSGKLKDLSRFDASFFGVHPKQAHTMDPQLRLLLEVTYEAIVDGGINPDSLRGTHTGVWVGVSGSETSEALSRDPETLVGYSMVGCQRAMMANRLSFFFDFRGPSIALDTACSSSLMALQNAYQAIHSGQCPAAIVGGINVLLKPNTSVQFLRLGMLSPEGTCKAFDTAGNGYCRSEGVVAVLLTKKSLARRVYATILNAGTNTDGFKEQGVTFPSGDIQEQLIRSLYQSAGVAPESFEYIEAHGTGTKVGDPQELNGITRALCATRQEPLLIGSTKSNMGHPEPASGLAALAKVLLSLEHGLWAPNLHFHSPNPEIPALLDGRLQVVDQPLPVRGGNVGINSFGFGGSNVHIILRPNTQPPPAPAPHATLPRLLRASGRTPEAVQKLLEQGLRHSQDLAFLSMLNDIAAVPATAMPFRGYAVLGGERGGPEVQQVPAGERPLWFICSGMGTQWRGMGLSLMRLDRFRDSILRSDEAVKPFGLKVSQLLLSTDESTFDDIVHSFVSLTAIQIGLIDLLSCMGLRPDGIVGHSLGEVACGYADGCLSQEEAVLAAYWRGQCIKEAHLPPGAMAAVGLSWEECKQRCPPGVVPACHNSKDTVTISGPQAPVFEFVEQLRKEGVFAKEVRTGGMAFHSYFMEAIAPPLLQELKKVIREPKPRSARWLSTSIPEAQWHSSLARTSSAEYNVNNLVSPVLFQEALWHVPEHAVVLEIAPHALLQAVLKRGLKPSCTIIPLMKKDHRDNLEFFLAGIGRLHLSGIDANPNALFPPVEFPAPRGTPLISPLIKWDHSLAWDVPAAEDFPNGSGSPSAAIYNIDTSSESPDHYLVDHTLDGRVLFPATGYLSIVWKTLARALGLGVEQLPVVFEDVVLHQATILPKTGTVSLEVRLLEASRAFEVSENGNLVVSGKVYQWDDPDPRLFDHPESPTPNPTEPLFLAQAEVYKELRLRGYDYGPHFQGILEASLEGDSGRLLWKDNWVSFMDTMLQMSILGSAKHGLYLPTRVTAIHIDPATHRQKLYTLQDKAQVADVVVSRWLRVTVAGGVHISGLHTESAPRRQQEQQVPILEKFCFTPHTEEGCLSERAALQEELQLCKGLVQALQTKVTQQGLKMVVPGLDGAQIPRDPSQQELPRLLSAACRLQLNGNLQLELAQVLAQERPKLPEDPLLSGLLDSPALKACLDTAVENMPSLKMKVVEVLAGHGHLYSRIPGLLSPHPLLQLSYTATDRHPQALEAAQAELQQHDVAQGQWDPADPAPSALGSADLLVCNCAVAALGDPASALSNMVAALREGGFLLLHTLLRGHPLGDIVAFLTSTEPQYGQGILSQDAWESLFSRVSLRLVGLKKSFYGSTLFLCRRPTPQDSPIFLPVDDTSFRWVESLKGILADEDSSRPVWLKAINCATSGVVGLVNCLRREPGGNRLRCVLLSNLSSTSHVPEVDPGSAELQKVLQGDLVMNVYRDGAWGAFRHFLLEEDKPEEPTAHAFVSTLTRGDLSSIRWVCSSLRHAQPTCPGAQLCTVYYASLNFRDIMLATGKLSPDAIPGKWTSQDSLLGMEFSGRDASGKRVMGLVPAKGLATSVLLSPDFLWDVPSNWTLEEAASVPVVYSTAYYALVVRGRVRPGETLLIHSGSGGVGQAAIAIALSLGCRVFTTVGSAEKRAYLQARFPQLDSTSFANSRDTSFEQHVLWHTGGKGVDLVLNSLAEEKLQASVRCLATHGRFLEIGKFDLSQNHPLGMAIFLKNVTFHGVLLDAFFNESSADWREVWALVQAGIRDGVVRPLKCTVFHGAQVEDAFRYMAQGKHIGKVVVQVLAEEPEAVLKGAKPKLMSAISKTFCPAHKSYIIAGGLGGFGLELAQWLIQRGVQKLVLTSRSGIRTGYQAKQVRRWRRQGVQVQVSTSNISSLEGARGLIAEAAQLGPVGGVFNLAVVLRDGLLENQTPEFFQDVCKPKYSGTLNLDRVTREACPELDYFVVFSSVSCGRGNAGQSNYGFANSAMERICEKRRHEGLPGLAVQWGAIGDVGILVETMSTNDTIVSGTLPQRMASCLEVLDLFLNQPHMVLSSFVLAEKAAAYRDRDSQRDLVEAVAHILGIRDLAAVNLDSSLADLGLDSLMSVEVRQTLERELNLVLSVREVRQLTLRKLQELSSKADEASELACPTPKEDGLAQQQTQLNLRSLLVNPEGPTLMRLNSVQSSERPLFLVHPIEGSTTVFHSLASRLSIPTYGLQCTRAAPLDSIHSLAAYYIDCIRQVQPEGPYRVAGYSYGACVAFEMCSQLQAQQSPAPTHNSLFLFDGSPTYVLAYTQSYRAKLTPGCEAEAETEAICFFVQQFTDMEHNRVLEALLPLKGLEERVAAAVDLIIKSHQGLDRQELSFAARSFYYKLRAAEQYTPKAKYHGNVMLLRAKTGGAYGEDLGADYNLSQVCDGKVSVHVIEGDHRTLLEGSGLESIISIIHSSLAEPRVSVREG

As usually defined, the IC50 is the concentration at which inhibition is half-maximal. A higher IC50 goes with weaker potency in that assay. `CCN(C(=O)n1nnc(-c2c(Cl)cccc2Cl)c1C#N)c1ccccc1` came in with an IC50 in test [1] of less than 0.2 µM.

`CCN(C(=O)n1cc(-c2ccccc2Cl)nn1)c1ccccc1`: the IC50 in test [1] was 0.5 to 1 µM.

Take `C[C@@H](NC(=O)c1ccccc1-c1nnn(C(=O)N2CCCC3CCCCC32)c1C#N)c1ccccc1` (stereo partly shown): in test [1], the half-maximal inhibitory concentration (IC50) was 0.2 to 0.5 µM.

In test [1], `N#Cc1c(-c2ccccc2CCc2ccccc2)nnn1C(=O)N1CCCC2CCCCC21` (stereo not shown) came in with an IC50 of less than 0.2 µM.

In test [2], `CCN(C(=O)n1nnc(-c2ccccc2CCc2ccccc2)c1C#N)c1ccccc1` displayed an IC50 of less than 0.2 µM.

For the molecule `CCN(C(=O)n1nncc1-c1ccccc1Cl)c1ccccc1F`, in test [1], the half-maximal inhibitory concentration (IC50) was greater than 1 µM.

`C[C@@H]1[C@@H](NC(=O)c2c(-c3ccccc3Oc3ccccc3)nnn2C(=O)N2CCCC3CCCCC32)C[C@@H]2C[C@H]1C2(C)C` (stereo partly shown) had an IC50 in test [1] greater than 1 µM.

`O=C(N1CCCC2CCCCC21)n1nnc2ccccc21` (stereo not shown) yielded an IC50 in test [1] greater than 1 µM.

`N#Cc1c(-c2c(Cl)cccc2Cl)nnn1C(=O)N1CCCC2CCCCC21` (stereo not shown) yielded an IC50 in test [1] of 0.2 to 0.5 µM.

Take `C[C@H]1[C@H](NC(=O)c2ccccc2-c2nnn(C(=O)N3CCCC4CCCCC43)c2C#N)C[C@H]2C[C@@H]1C2(C)C` (stereo partly shown): in test [1], the IC50 was in the range of 0.2 to 0.5 µM.

Regarding `CCN(C(=O)n1nnc2ccccc21)c1ccc(C(=O)O)cc1`, the IC50 in test [1] is greater than 1 µM.

In turn, `CCN(C(=O)n1nnc(-c2c(F)cccc2F)c1C#N)c1ccccc1` came in with an IC50 in test [1] of less than 0.2 µM.

Molecule `CCOC(=O)c1c(-c2ccccc2Oc2ccccc2)nnn1C(=O)N(CC)c1ccccc1` had an IC50 in test [1] of 0.5 to 1 µM.

In test [1], `CCN(C(=O)n1nnc(C2CCCCC2)c1C#N)c1ccccc1` showed an IC50 of 0.2 to 0.5 µM.

On to `CCOC(=O)c1c(-c2ccccc2Oc2ccccc2)nnn1C(=O)N1CCCC2CCCCC21` (stereo not shown) [ethyl 1-(decahydroquinoline-1-carbonyl)-4-(2-phenoxyphenyl)-1H-1,2,3-triazole-5-carboxylate], for which, in test [1], the IC50 is 0.5 to 1 µM.

`CC(C)N(C(=O)n1nnc(-c2c(F)cccc2F)c1C#N)c1cccc(C(=O)O)c1` [3-(5-cyano-4-(2,6-difluorophenyl)-N-isopropyl-1H-1,2,3-triazole-1-carboxamido)benzoic acid] gave an IC50 in test [2] of less than 0.2 µM.

In test [1], `C[C@H]1[C@H](NC(=O)c2c(-c3ccccc3Oc3ccccc3)nnn2C(=O)N2CCCC3CCCCC32)C[C@H]2C[C@@H]1C2(C)C` (stereo partly shown) displayed an IC50 greater than 1 µM.

`CCN(C(=O)n1nncc1-c1ccccc1)C1CCCCC1`: in test [1], the IC50 is greater than 1 µM.

In test [1], `N#Cc1c(-c2c(F)cccc2F)nnn1C(=O)N1CCCC2CCCCC21` (stereo not shown) returned an IC50 of 0.2 to 0.5 µM.

`CCN(C(=O)n1nnc(-c2c(F)cccc2Cl)c1C#N)c1ccccc1F` had an IC50 in test [1] of less than 0.2 µM.

`O=C(N1CCCC2CCCCC21)n1nnc2ncccc21` (stereo not shown): the IC50 in test [1] is greater than 1 µM.

Regarding `CC(=O)N1CCC(N(Cc2ccccc2)C(=O)n2nnc(-c3ccccc3Oc3ccccc3)c2C#N)CC1`, the IC50 in test [1] was greater than 1 µM.

`CCN(C(=O)n1nnc(-c2ccccc2Oc2ccccc2)c1C#N)c1ccccc1` yielded an IC50 in test [1] of less than 0.2 µM.

As to `CC(C)(C)OC(=O)N1CCC(N(Cc2ccccc2)C(=O)n2nnc(-c3ccccc3Oc3ccccc3)c2C#N)CC1`, in test [1], the IC50 was greater than 1 µM.

`CCN(C(=O)n1cc(-c2ccccc2Cl)nn1)c1ccccc1F` registered an IC50 in test [1] greater than 1 µM.

In turn, `C[C@H](NC(=O)c1ccccc1-c1nnn(C(=O)N2CCCC3CCCCC32)c1C#N)c1ccccc1` (stereo partly shown) returned an IC50 in test [1] of less than 0.2 µM.

In the case of `CCN(C(=O)n1nnc(-c2c(F)cccc2Cl)c1C#N)c1ccccc1`, the half-inhibitory concentration (IC50) in test [1] was less than 0.2 µM.

`CCN(C(=O)n1nncc1-c1ccccc1Cl)c1ccccc1` returned an IC50 in test [1] greater than 1 µM.

In test [1], `COC(=O)C1CCc2ccccc2N1C(=O)n1nnc(-c2ccccc2Oc2ccccc2)c1C#N` (stereo not shown) came in with an IC50 of 0.5 to 1 µM.

In turn, `C[C@@H]1[C@@H](NC(=O)c2ccccc2-c2nnn(C(=O)N3CCCC4CCCCC43)c2C#N)C[C@@H]2C[C@H]1C2(C)C` (stereo partly shown) gave an IC50 in test [1] of 0.5 to 1 µM.

As to `CCN(C(=O)n1nnc2ccccc21)c1ccccc1F`, the IC50 in test [1] fell in the range of 0.5 to 1 µM.

As for `CCOC(=O)c1c(C2CC3C=CC2C3)nnn1C(=O)N1CCCC2CCCCC21` (stereo not shown), the IC50 in test [1] was greater than 1 µM.

As to `CCN(C(=O)n1nnc2ncccc21)c1ccccc1`, in test [1], the IC50 was in the range of 0.5 to 1 µM.

In the case of `CCN(C(=O)n1cc(-c2ccccc2)nn1)C1CCCCC1`, in test [1], the IC50 was greater than 1 µM.

The values are drawn from patent publication US8450350B2, “Triazoles as inhibitors of fatty acid synthase” (Infinity Pharmaceuticals, Inc., priority 2010, dated 2013).
